Test results taken from patent US11795177B2, “Substituted quinoline analogs as aldehyde dehydrogenase 1A1 (ALDH1A1) inhibitors” (THE UNITED STATES OF AMERICA, AS REPRESENTED BY THE …, priority 2017, dated 2023).
Structures can show the parent of a compound that is named as a salt. Where two headings read alike, the source gives them in different places.

Key:
ALDH1A1 enzyme = target: T1, ALDH1A1 enzyme (Homo sapiens, UniProt P00352); assay: ALDH1A1 enzymatic assay (in vitro); format: biochemical
T1 sequence (P00352 1-501): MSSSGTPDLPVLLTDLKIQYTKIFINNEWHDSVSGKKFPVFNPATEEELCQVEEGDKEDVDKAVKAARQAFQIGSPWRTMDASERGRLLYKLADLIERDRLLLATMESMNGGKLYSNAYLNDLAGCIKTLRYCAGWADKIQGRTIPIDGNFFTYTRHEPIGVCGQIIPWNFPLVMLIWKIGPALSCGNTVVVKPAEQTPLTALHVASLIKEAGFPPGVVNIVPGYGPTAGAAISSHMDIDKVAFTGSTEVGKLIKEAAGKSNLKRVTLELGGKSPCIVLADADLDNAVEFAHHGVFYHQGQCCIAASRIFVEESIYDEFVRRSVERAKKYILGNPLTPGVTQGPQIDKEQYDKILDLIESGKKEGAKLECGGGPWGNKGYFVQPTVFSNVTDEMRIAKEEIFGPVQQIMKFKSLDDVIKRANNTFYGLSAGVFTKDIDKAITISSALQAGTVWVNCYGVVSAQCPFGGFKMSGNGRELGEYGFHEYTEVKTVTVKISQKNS
Method in brief: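 ALDH1A1 (20 nM final) in 100 mM HEPES pH 7.5, 0.01% Tween 20 was preincubated 15 min at RT with compound (968 pM–57.2 μM final), then started with 1 mM NAD+ and 80 μM propionaldehyde. NADH fluorescence (ex 340/em 450 nm) followed kinetically for 10 min; change normalized to no-inhibitor and no-enzyme controls for percent inhibition and curve fitting.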

MIA PaCa-2 cells = assay: MIA PaCa2 cell-based assay (1,536-well high-content imaging ALDEFLUOR assay); set-up: species or system human; conditions: Homo sapiens, 0.5 h, ALDEFLUOR BAAA substrate 500 nM, 30 minutes
Method in brief: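 High-content ALDEFLUOR imaging readout: BAA-retaining cells in FITC channel scored against Hoechst-counted nuclei. Before imaging, MIA PaCa-2 cells seeded at 1,000 per well received final 500 nM BAAA and 0.5 nM Hoechst with compounds in 16-point series (1.4 nM to 47.8 μM), 30 min, 37° C.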

[1] = ALDH1A1 enzyme 20 nM, NAD+ 1 mM, propionaldehyde 80 μM, read-out: ALDH1A1 IC50

CCC(=O)N1CCN(C(=O)c2cnc3ccc(Cl)cc3c2N2CCC(C)(C#N)CC2)CC1 [Example 118, 1-(6-chloro-3-(4-propionylpiperazine-1-carbonyl)quinolin-4-yl)-4-methylpiperidine-4-carbonitrile]
IC50 (ALDH1A1 enzyme; [1]): < 500 nM | IC50 (MIA PaCa-2 cells): 1000 to 10000 nM

CS(=O)(=O)N1CCN(C(=O)c2cnc3c(F)c(F)c(F)cc3c2N2CCC3(CC2)OCCO3)CC1 [Example 134, (4-(methylsulfonyl)piperazin-1-yl)(6,7,8-trifluoro-4-(1,4-dioxa-8-azaspiro[4.5]decan-8-yl)quinolin-3-yl)methanone]
IC50 (ALDH1A1 enzyme; [1]): < 500 nM | IC50 (MIA PaCa-2 cells): 1000 to 10000 nM

COc1ccc2ncc(C(=O)N3CCN(C(=O)C4CC4)CC3)c(N3CCN(S(C)(=O)=O)CC3)c2c1 [Example 19, (4-(cyclopropanecarbonyl)piperazin-1-yl)(6-methoxy-4-(4-(methylsulfonyl)piperazin-1-yl)quinolin-3-yl)methanone, TFA]
IC50 (ALDH1A1 enzyme; [1]): 1000 to 10000 nM | IC50 (MIA PaCa-2 cells): 1000 to 10000 nM

CC1(C#N)CCN(c2c(C(=O)N3CCN(S(C)(=O)=O)CC3)cnc3c(F)c(F)c(F)cc23)CC1 [Example 138, 4-methyl-1-(6,7,8-trifluoro-3-(4-(methylsulfonyl)piperazine-1-carbonyl)quinolin-4-yl)piperidine-4-carbonitrile]
IC50 (ALDH1A1 enzyme; [1]): < 500 nM | IC50 (MIA PaCa-2 cells): 1000 to 10000 nM

CCOC(=O)N1CCN(C(=O)c2cnc3ccccc3c2N2CCC(C)(C#N)CC2)CC1 [Example 100, Ethyl 4-(4-(4-cyano-4-methylpiperidin-1-yl)quinoline-3-carbonyl)piperazine-1-carboxylate]
IC50 (ALDH1A1 enzyme; [1]): 500 to 1000 nM | IC50 (MIA PaCa-2 cells): > 10000 nM

O=C(c1cnc2cc(F)c(F)cc2c1N1CCC2(CC1)OCCO2)N1CCN(C(=O)N2CCCC2)CC1 [Example 170, (6,7-difluoro-4-(1,4-dioxa-8-azaspiro[4.5]decan-8-yl)quinolin-3-yl)(4-(pyrrolidine-1-carbonyl)piperazin-1-yl)methanone]
IC50 (ALDH1A1 enzyme; [1]): < 500 nM | IC50 (MIA PaCa-2 cells): 1000 to 10000 nM

N#CC1(c2ccc(-c3c(C(=O)Nc4cnn(CC(=O)NC5CC5)c4)cnc4ccc(F)cc34)cc2)CC1 [Cpd. 344, 4-(4-(1-cyanocyclopropyl)phenyl)-N-(1-(2-(cyclopropylamino)-2-oxoethyl)-1H-pyrazol-4-yl)-6-fluoroquinoline-3-carboxamide]
IC50 (ALDH1A1 enzyme; [1]): < 500 nM | IC50 (MIA PaCa-2 cells): 1000 to 10000 nM

CCNC(=O)N1CCN(C(=O)c2cnc3ccc(F)cc3c2N2CCC3(CC2)OCCO3)CC1 [Example 56, N-ethyl-4-(6-fluoro-4-(1,4-dioxa-8-azaspiro[4.5]decan-8-yl)quinoline-3-carbonyl)piperazine-1-carboxamide]
IC50 (ALDH1A1 enzyme; [1]): < 500 nM | IC50 (MIA PaCa-2 cells): > 10000 nM

CS(=O)(=O)N1CCN(C(=O)c2cnc3ccc(F)cc3c2-c2ccc(C3(CO)CC3)cc2)CC1 [Example 280, (6-fluoro-4-(4-(1-(hydroxymethyl)cyclopropyl)phenyl)quinolin-3-yl)(4-(methylsulfonyl)piperazin-1-yl)methanone]
IC50 (ALDH1A1 enzyme; [1]): < 500 nM | IC50 (MIA PaCa-2 cells): < 500 nM

CS(=O)(=O)N1CCN(C(=O)c2cnc3ccc(F)cc3c2N2CCN(S(=O)(=O)c3ccccc3)CC2)CC1 [Example 254, (6-fluoro-4-(4-(phenylsulfonyl)piperazin-1-yl)quinolin-3-yl)(4-(methylsulfonyl)piperazin-1-yl)methanone]
IC50 (ALDH1A1 enzyme; [1]): < 500 nM | IC50 (MIA PaCa-2 cells): < 500 nM

CN(C)C(=O)N1CCN(C(=O)c2cnc3ccsc3c2-c2ccc(C3(C#N)CC3)cc2)CC1 [Example 281, 4-(7-(4-(1-cyanocyclopropyl)phenyl)thieno[3,2-b]pyridine-6-carbonyl)-N,N-dimethylpiperazine-1-carboxamide]
IC50 (ALDH1A1 enzyme; [1]): < 500 nM | IC50 (MIA PaCa-2 cells): < 500 nM

COc1ccc2ncc(C(=O)N3CCC(OC)CC3)c(N3CCC4(CC3)OCCO4)c2c1 [Example 2, (6-methoxy-4-(1,4-dioxa-8-azaspiro[4.5]decan-8-yl)quinolin-3-yl)(4-methoxypiperidin-1-yl)methanone, TFA]
IC50 (ALDH1A1 enzyme; [1]): < 500 nM | IC50 (MIA PaCa-2 cells): 1000 to 10000 nM

CS(=O)(=O)N1CCN(C(=O)c2cnc3ccc(F)cc3c2N2CCC(Cc3ccccc3)CC2)CC1 [Example 198, (4-(4-benzylpiperidin-1-yl)-6-fluoroquinolin-3-yl)(4-(methylsulfonyl)piperazin-1-yl)methanone]
IC50 (ALDH1A1 enzyme; [1]): < 500 nM | IC50 (MIA PaCa-2 cells): > 10000 nM

COc1ccc2ncc(C(=O)N3CCN(C4CCCC4)CC3)c(N3CCC4(CC3)OCCO4)c2c1 [Example 9, (4-cyclopentylpiperazin-1-yl)(6-methoxy-4-(1,4-dioxa-8-azaspiro[4.5]decan-8-yl)quinolin-3-yl)methanone, TFA]
IC50 (ALDH1A1 enzyme; [1]): 1000 to 10000 nM | IC50 (MIA PaCa-2 cells): > 10000 nM

COc1ccc2ncc(C(=O)N3CCC4(CC3)OCCO4)c(N3CCC4(CC3)OCCO4)c2c1 [Example 37, (6-methoxy-4-(1,4-dioxa-8-azaspiro[4.5]decan-8-yl)quinolin-3-yl)(1,4-dioxa-8-azaspiro[4.5]decan-8-yl)methanone]
IC50 (ALDH1A1 enzyme): < 500 nM | IC50 (MIA PaCa-2 cells): 500 to 1000 nM

CN(C)C(=O)N1CCN(C(=O)c2cnc3ccc(F)cc3c2-c2ccc(C(C)(C)C#N)cc2)CC1 [Example 263, 4-(4-(4-(2-cyanopropan-2-yl)phenyl)-6-fluoroquinoline-3-carbonyl)-N,N-dimethylpiperazine-1-carboxamide]
IC50 (ALDH1A1 enzyme; [1]): < 500 nM | IC50 (MIA PaCa-2 cells): < 500 nM

COc1ccc2ncc(C(=O)N3CCN(C(=O)C4CC4)CC3)c(N3CCC(C)(C)CC3)c2c1 [Example 18, (4-(cyclopropanecarbonyl)piperazin-1-yl)(4-(4,4-dimethylpiperidin-1-yl)-6-methoxyquinolin-3-yl)methanone, TFA]
IC50 (ALDH1A1 enzyme; [1]): < 500 nM | IC50 (MIA PaCa-2 cells): 1000 to 10000 nM

O=C(c1cnc2ccc(F)cc2c1N1CCC2(CC1)Cc1ccccc1C2=O)N1CCN(C(=O)C2CC2)CC1 [Example 204, 1′-(3-(4-(cyclopropanecarbonyl)piperazine-1-carbonyl)-6-fluoroquinolin-4-yl)spiro[indene-2,4′-piperidin]-1(3H)-one]
IC50 (ALDH1A1 enzyme; [1]): 1000 to 10000 nM | IC50 (MIA PaCa-2 cells): > 10000 nM

CS(=O)(=O)N1CCN(C(=O)c2cnc3ccc(F)cc3c2N2CCC3(CC2)OCCO3)CC1 [Example 52, (6-fluoro-4-(1,4-dioxa-8-azaspiro[4.5]decan-8-yl)quinolin-3-yl)(4-(methylsulfonyl)piperazin-1-yl)methanone]
IC50 (ALDH1A1 enzyme; [1]): < 500 nM | IC50 (MIA PaCa-2 cells): 1000 to 10000 nM

CC1(C#N)CCN(c2c(C(=O)N3CCN(C(=O)C4CC4)CC3)cnc3c(F)cc(F)cc23)CC1 [Example 125, 1-(3-(4-(cyclopropanecarbonyl)piperazine-1-carbonyl)-6,8-difluoroquinolin-4-yl)-4-methylpiperidine-4-carbonitrile]
IC50 (ALDH1A1 enzyme; [1]): < 500 nM | IC50 (MIA PaCa-2 cells): 1000 to 10000 nM

CCNC(=O)N1CCN(C(=O)c2cnc3c(F)cc(F)cc3c2N2CCC3(CC2)OCCO3)CC1 [Example 141, 4-(6,8-difluoro-4-(1,4-dioxa-8-azaspiro[4.5]decan-8-yl)quinoline-3-carbonyl)-N-ethylpiperazine-1-carboxamide]
IC50 (ALDH1A1 enzyme; [1]): < 500 nM | IC50 (MIA PaCa-2 cells): 1000 to 10000 nM

COC1(C)CCN(c2c(C(=O)N3CCN(C(=O)C4CC4)CC3)cnc3ccc(F)cc23)CC1 [Example 61, (4-(cyclopropanecarbonyl)piperazin-1-yl)(6-fluoro-4-(4-methoxy-4-methylpiperidin-1-yl)quinolin-3-yl)methanone]
IC50 (ALDH1A1 enzyme; [1]): < 500 nM | IC50 (MIA PaCa-2 cells): > 10000 nM
